Results as given in US10183015B2, “Heterocyclic compounds and methods of use” (Medivation Technologies LLC, priority 2015, dated 2019).
Values joined by “and” are separate entries in the source; they are usually repeats but may differ in a detail not shown here. Equal entries are not always repeated.

How the values were obtained:
Format in all cases: in vivo
[1] = system: 60% high fat Paigen diet induced NASH mouse model; test: Short-term Paigen-diet NASH mouse model: liver Oil Red O staining; conditions: 21 days
Protocol: (§1) To investigate whether Compound #37 prevents the development of pathology associated with NASH and steatosis in an acute exploratory disease model, a study was conducted using a diet-induced acute liver steatosis model in mice. As described below, in this study, C57BL/6J mice were initiated on the Paigen diet and simultaneously treated with Compound #37 (5, 20, and 40 mg/kg/day) or vehicle control (20% HPβCD 10 mL/kg/day) by oral gavage for 21 days.
(§2) After acclimation, 8-week old male C57Bl/6J mice (Charles River) weighing about 25 g were randomized in 4 groups according their body weight and treated once daily around noon by oral gavage with vehicle, or Compound #37 at various for 21 days as follows: Group 1: vehicle-20% (2-hydroxypropyl)-β-cyclodextrin (HP-β-CD) (n=10); Group 2: Compound #37, 5 mg/kg (n=10) Group 3: Compound #37, 20 mg/kg (n=10) Group 4: Compound #37, 40 mg/kg (n=10). During the treatment period, body weight and food intake (measured over 24h) were measured 3 times per week and once a week, respectively. During the acclimation, all mice were fed a standard diet (Special Diets Services RM1 (E), product no. 801492) and tap water ad libitum. After the acclimation period, mice were fed until the end of the experiment with a 60% high fat Paigen diet (60 kcal % fat, 1.25% cholesterol, and 0.5% cholate; D11061901, Research Diet) and tap water ad libitum.
One 0.5 cm^3 piece of liver was frozen in OCT in isopentane and stored at −80° C. for neutral lipid coloration with quantification to evaluate accumulation of neutral lipids in the liver. One section (thickness 5-7 μm) per block was deposited on superfrost+slides for Red Oil staining. Red Oil-stained slides were digitalized at ×20 with the Nanozoomer 2.0 HT. Red Oil labeling was quantified (surface, density): the stained slides were analyzed using an image. All the samples were analyzed within the same range of labeling intensity (0-130), allowing comparison between animals. The intensity scale ranged from 0 to 255 grey levels, in which 0 is the value of a black pixel, and 255 is the value of a white pixel. The staining intensity was calculated as the mean intensity of each pixel composing the labeling signal. For each slide, the percentage (%) of labeling was also calculated: %=(Surface of labeling*100)/section area.

[2] = system: diet-induced NASH obese insulin resistant mice; test: DIN mouse model: plasma lipid levels; conditions: 20 mg/kg, end of treatment
Protocol: Male C57Bl/6J mice (8 weeks old) were housed in enriched ventilated cages (31×12.5×12.7 cm) throughout the experimental phase. Animals' cages litters were changed at least once a week. Animal were housed 5 per cage on inverted 12-hour light cycle (at 09:00 am lights off), 22±2° C. and 55±10% relative humidity. The acclimation period was 20 days. During the acclimation period, all mice were fed a standard diet (RM1 (E) 801492, SDS) and tap water ad libitum. After the acclimation period, mice were fed with the DIN diet (60% fat, cholesterol enriched) and fructose-enriched tap water ad libitum until the end of the experiment.
At 6 weeks of diet, mice were 4-hour fasted (09:00 am to 1:00 pm) and blood (150 μl/EDTA) was collected at 01:00 pm by retro-orbital bleeding under isoflurane anesthesia. Mice were then allocated in 2 homogenous groups (n=12/group) according to their plasma levels of ALT (average levels: 685U/L), AST (average levels: 627U/L) and HOMA-IR index (average value: 4.7), into 2 homogenous groups (see values at day 0 in Tables 15A and 15B ALT/AST and Tables 16A and 16B for HOMA-IR). Mice were then treated once daily by oral gavage with vehicle (Group 1) or Compound #37 at 20 mg/kg (Group 2) for 70 days.
To investigate whether Compound #37 improves pre-existing steatosis/NASH pathology, a study was conducted using a 16-week diet-induced NASH mouse model. In this model, mice develop steatosis that progresses with inflammation and fibrosis that mimic many of the observed pathologies in human nonalcoholic fatty liver disease (NAFLD) and NASH (Hebbard & George, 2010). For 6 weeks, mice were fed a high-fat, high-cholesterol diet and provided drinking water containing fructose to induce liver pathology (Charlton et al, 2011). After 6 weeks, the mice were divided into 2 groups with similar mean aspartate aminotransferase (AST) and alanine aminotransferase (ALT) values (n=12 mice), although it should be noted that AST and ALT concentrations within both groups were higher and with greater variability than anticipated (e.g., mean ALT 677 U/L [SD, 401 U/L] in the vehicle control group and 693 U/L [SD, 365 U/L] in the Compound #37 group). After the animals were divided into 2 groups, the diet was continued for 10 additional weeks during which time 1 group received vehicle and the other was treated with 20 mg/kg/day Compound #37.

PERK = test: Short-term Paigen-diet NASH mouse model: hepatic PERK gene expression (RT-qPCR); conditions: 21 days
Protocol: as §1, §2
Gene expression analysis. Hepatic expression levels of genes involved in lipid metabolism (FAS, SREBP1, ACC1, SCD1), cholesterol metabolism (HMG-CoAR, LDLR), SREBP proteolysis (SCAP, INSIG1), ER stress (PERK), oxidative stress (NRF2), inflammation (MCP-1), and fibrosis (collagen 1α1) were quantified by RTqPCR. Expression level was normalized to 18S gene expression and relative expression to vehicle group was calculated with the […] method.

CC(C)Cc1cc(-c2nc(-c3ccc(NS(=O)(=O)C(F)(F)F)cc3Cl)cs2)ccn1 [Compound 37, N-(3-chloro-4-(2-(2-isobutylpyridin-4-yl)thiazol-4-yl)phenyl)-1,1,1-trifluoromethanesulfonamide]
Liver O red Oil staining, % labeling ([1]; 5 mg/kg p.o. daily, group mean): 1.50% | Liver O red Oil staining, % labeling ([1]; 5 mg/kg p.o. daily, individual animals): 2.08% and 2.02% and 1.19% and 2.18% and 1.64% and 1.09% and 1.16% and 1.50% and 0.70% and 1.39% | Liver O red Oil staining, % labeling ([1]; 20 mg/kg p.o. daily, group mean): 0.93% | Liver O red Oil staining, % labeling ([1]; 20 mg/kg p.o. daily, individual animals): 1.53% and 0.81% and 0.29% and 1.11% and 0.92% (2×) | HDL-cholesterol increase ([2]; p<0.05 vs. vehicle): 31% | plasma HDL cholesterol ([2]; group mean, n 11): 1.42 g/L | plasma cholesterol ([2]; group mean, n 11): 1.82 g/L | plasma free fatty acids ([2]; group mean, n 11): 0.59 mM | plasma triglycerides ([2]; group mean, n 11): 0.40 g/L | plasma HDL cholesterol ([2]; individual animals): 1.65 g/L and 1.68 g/L and 1.10 g/L and 1.47 g/L (2×) and 1.90 g/L and 1.12 g/L and 1.43 g/L and 0.62 g/L and 1.62 g/L and 1.56 g/L | plasma cholesterol ([2]; individual animals): 2.49 g/L and 2.36 g/L and 1.95 g/L and 1.67 g/L and 2.12 g/L and 1.38 g/L and 1.62 g/L and 1.15 g/L and 1.57 g/L and 1.86 g/L and 1.90 g/L | plasma free fatty acids ([2]; individual animals): 0.73 mM and 0.63 mM and 0.59 mM (3×) and 0.29 mM and 0.65 mM and 0.56 mM and 0.71 mM and 0.44 mM and 0.67 mM | plasma triglycerides ([2]; individual animals): 0.37 g/L (2×) and 0.3 g/L and 0.42 g/L and 0.35 g/L and 0.40 g/L and 0.34 g/L and 0.45 g/L and 0.50 g/L and 0.47 g/L and 0.39 g/L | ER and oxidative stress gene expression PERK: 2DDct (PERK; 5 mg/kg, group mean, n 10): 0.91 | ER and oxidative stress gene expression PERK: 18S (PERK; 5 mg/kg, group mean, n 10): 12.3 | ER and oxidative stress gene expression PERK: DDct (PERK; 5 mg/kg, group mean, n 10): 0.32 | ER and oxidative stress gene expression PERK: Dct (PERK; 5 mg/kg, group mean, n 10): 15.4 | ER and oxidative stress gene expression PERK: PERK (PERK; 5 mg/kg, group mean, n 10): 27.6 | ER and oxidative stress gene expression PERK: 2DDct (PERK; 5 mg/kg, individual animals): 1.29 and 0.54 and 0.35 and 1.5 and 0.42 and 0.58 and 1.06 and 1.56 and 0.97 and 0.79 | ER and oxidative stress gene expression PERK: 18S (PERK; 5 mg/kg, individual animals): 13.46 and 13.11 and 11.61 and 13.35 (2×) and 12.03 and 11.6 and 11.79 and 11.14 and 11.12 | ER and oxidative stress gene expression PERK: DDct (PERK; 5 mg/kg, individual animals): −0.36 and 0.9 and 1.52 and −0.58 and 1.24 and 0.8 and −0.08 and −0.64 and 0.04 and 0.34 | ER and oxidative stress gene expression PERK: Dct (PERK; 5 mg/kg, individual animals): 14.68 and 15.94 and 16.56 and 14.46 and 16.28 and 15.84 and 14.96 and 14.4 and 15.08 and 15.38 | ER and oxidative stress gene expression PERK: PERK (PERK; 5 mg/kg, individual animals): 28.14 and 29.05 and 28.17 and 27.81 and 28.31 and 29.19 and 26.56 and 26.19 and 26.22 and 26.5 | ER and oxidative stress gene expression PERK: 2DDct (PERK; 20 mg/kg, group mean, n 6): 1.33 | ER and oxidative stress gene expression PERK: 18S (PERK; 20 mg/kg, group mean, n 6): 12.2 | ER and oxidative stress gene expression PERK: DDct (PERK; 20 mg/kg, group mean, n 6): −0.27 | ER and oxidative stress gene expression PERK: Dct (PERK; 20 mg/kg, group mean, n 6): 14.8 | ER and oxidative stress gene expression PERK: PERK (PERK; 20 mg/kg, group mean, n 6): 27 | ER and oxidative stress gene expression PERK: 2DDct (PERK; 20 mg/kg, individual animals): 1.04 and 1.05 and 1.27 and 2.68 and 0.61 and 1.34 | ER and oxidative stress gene expression PERK: 18S (PERK; 20 mg/kg, individual animals): 12.91 and 12.29 and 12.2 and 13.03 and 11.49 and 11.26 | ER and oxidative stress gene expression PERK: DDct (PERK; 20 mg/kg, individual animals): −0.05 and −0.07 and −0.34 and −1.42 and 0.72 and −0.42 | ER and oxidative stress gene expression PERK: Dct (PERK; 20 mg/kg, individual animals): 14.99 and 14.97 and 14.7 and 13.62 and 15.76 and 14.62 | ER and oxidative stress gene expression PERK: PERK (PERK; 20 mg/kg, individual animals): 27.9 and 27.26 and 26.9 and 26.65 and 27.25 and 25.88
